“And” between values parts separate entries of the source, which are not always exact repeats. Identical values can stand only once. Inconclusive results and toxic doses are left out.
System: BDF1 mice, B16 melanoma ip, median survival T/C
Assay: NCI In Vivo Anticancer Drug Screen. Data for tumor model B16 Melanoma (intraperitoneal) in B6D2F1 (BDF1) mice
Conditions: endpoint: median survival time, higher = longer survival
Method in brief: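 Values are ratios of treated (T) to vehicle-control (C) measurements of survival or tumor size in tumor-bearing mice.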

[1] = dose: 50.0 mg/kg/injection, schedule: Q01DX009 (ip), vehicle: Klucel (hydroxypropylcellulose) (HPC)
[2] = dose: 100.0 mg/kg/injection, schedule: Q01DX009 (ip), vehicle: Klucel (hydroxypropylcellulose) (HPC)
[3] = dose: 200.0 mg/kg/injection, schedule: Q01DX009 (ip), vehicle: Klucel (hydroxypropylcellulose) (HPC)
[4] = dose: 25.0 mg/kg/injection, schedule: Q01DX009 (ip), vehicle: Klucel (hydroxypropylcellulose) (HPC)
[5] = dose: 25.0 mg/kg/injection, schedule: Q04DX003 (ip), vehicle: Klucel (hydroxypropylcellulose) (HPC)
[6] = dose: 50.0 mg/kg/injection, schedule: Q04DX003 (ip), vehicle: Klucel (hydroxypropylcellulose) (HPC)
[7] = dose: 100.0 mg/kg/injection, schedule: Q04DX003 (ip), vehicle: Klucel (hydroxypropylcellulose) (HPC)
[8] = dose: 200.0 mg/kg/injection, schedule: Q04DX003 (ip), vehicle: Klucel (hydroxypropylcellulose) (HPC)
[9] = dose: 400.0 mg/kg/injection, schedule: Q01DX009 (ip), vehicle: Klucel (hydroxypropylcellulose) (HPC)
[10] = dose: 400.0 mg/kg/injection, schedule: Q04DX003 (ip), vehicle: Klucel (hydroxypropylcellulose) (HPC)
[11] = dose: 6.25 mg/kg/injection, schedule: Q01DX009 (ip), vehicle: saline with Tween-80
[12] = dose: 12.5 mg/kg/injection, schedule: Q01DX009 (ip), vehicle: saline with Tween-80
[13] = dose: 100.0 mg/kg/injection, schedule: Q01DX009 (ip), vehicle: saline with Tween-80
[14] = dose: 200.0 mg/kg/injection, schedule: Q01DX009 (ip), vehicle: saline with Tween-80
[15] = dose: 400.0 mg/kg/injection, schedule: Q01DX009 (ip), vehicle: saline with Tween-80
[16] = dose: 50.0 mg/kg/injection, schedule: Q01DX009 (ip), vehicle: saline with Tween-80
[17] = dose: 12.5 mg/kg/injection, schedule: Q01DX009 (ip), vehicle: Klucel (hydroxypropylcellulose) (HPC)
[18] = dose: 25.0 mg/kg/injection, schedule: Q01DX009 (ip), vehicle: saline with Tween-80

C=C(C)C12OC3(/C=C/C=C/CCCCC)OC1C1C4OC4(CO)C(O)C4(O)C(=O)C(C)=CC4C1(O3)C(C)C2OC(=O)c1ccccc1 (stereo not given)
T/C (dose: 0.5 micrograms/kg/injection, schedule: Q01DX009 (ip), vehicle: saline): 104 % of control
T/C (dose: 1.0 micrograms/kg/injection, schedule: Q01DX009 (ip), vehicle: saline): 104 % of control
T/C (dose: 1.9 micrograms/kg/injection, schedule: Q01DX009 (ip), vehicle: saline): 105 % of control
T/C (dose: 3.8 micrograms/kg/injection, schedule: Q01DX009 (ip), vehicle: saline): 104 % of control
T/C (dose: 7.5 micrograms/kg/injection, schedule: Q01DX009 (ip), vehicle: saline): 97 % of control
T/C (dose: 15.0 micrograms/kg/injection, schedule: Q01DX009 (ip), vehicle: saline): 104 % of control
T/C (dose: 30.0 micrograms/kg/injection, schedule: Q01DX009 (ip), vehicle: saline): 98 % of control

CCCN1CSC(=S)N(CCC)C1
T/C [1]: 89 % of control
T/C [2]: 102 % of control
T/C [3]: 102 % of control

O=C1CCC(N2C(=O)c3ccccc3C2=O)C(=O)N1 (stereo not given)
T/C [4]: 100 % of control
T/C [5]: 99 % of control
T/C [1]: 102 % of control
T/C [6]: 106 % of control
T/C [2]: 94 % of control
T/C [7]: 94 % of control
T/C [3]: 100 % of control
T/C [8]: 99 % of control
T/C [9]: 102 % of control
T/C [10]: 94 % of control

CC(C)(C)C1CC(C(F)(F)F)(C(F)(F)F)OS(=O)O1 (stereo not given)
T/C (dose: 1.56 mg/kg/injection, schedule: Q04DX003 (ip), vehicle: saline): 102 % of control
T/C (dose: 3.13 mg/kg/injection, schedule: Q04DX003 (ip), vehicle: saline): 115 % of control
T/C (dose: 6.25 mg/kg/injection, schedule: Q04DX003 (ip), vehicle: saline): 105 % of control

C=CN1CCCC1=O
T/C (dose: 178.0 mg/kg/injection, schedule: Q01DX009 (ip), vehicle: saline): 109 % of control
T/C (dose: 266.0 mg/kg/injection, schedule: Q01DX009 (ip), vehicle: saline): 100 % of control
T/C (dose: 400.0 mg/kg/injection, schedule: Q01DX009 (ip), vehicle: saline): 104 % of control
T/C (dose: 600.0 mg/kg/injection, schedule: Q01DX009 (ip), vehicle: saline): 111 % of control
T/C (dose: 750.0 mg/kg/injection, schedule: Q01DX009 (ip), vehicle: saline): 108 % of control

Cl/C=C(\Cl)CCl
T/C [11]: 108 % of control
T/C [12]: 90 % of control

CCCCCCCCCCCCOc1ccccn1
T/C [3]: 88 % of control
T/C [9]: 86 % of control

O=C(Nc1ccccc1)OCC(Cl)(Cl)Cl
T/C [2]: 114 % of control
T/C [3]: 108 % of control
T/C [9]: 102 % of control

NC(=O)C(N)=O
T/C [2]: 103 % of control
T/C [3]: 96 % of control

Cc1cc2ncn(C(=O)Nc3ccccc3)c2cc1C
T/C [13]: 100 % of control
T/C [14]: 95 % of control
T/C [15]: 88 % of control

CCCCC(SC(CC)(C(C)=O)c1ccccc1)C(N)=O (stereo not given)
T/C [16]: 89 % of control
T/C [13]: 108 % of control
T/C [14]: 87 % of control
T/C [15]: 92 % of control

C[N+](C)(C)Cc1ccccc1
T/C (dose: 6.25 mg/kg/injection, schedule: Q01DX009 (ip), vehicle: Klucel (hydroxypropylcellulose) (HPC)): 109 % of control
T/C [17]: 107 % of control
T/C [4]: 101 % of control

O=C1CC2(C(=O)N1CN1CCOCC1)c1ccccc1-c1ccccc12
T/C [4]: 103 % of control
T/C [1]: 98 % of control
T/C [2]: 98 % of control
T/C [3]: 107 % of control
T/C [9]: 115 % of control

CC(=O)OCC(OC(C)=O)C(OC(C)=O)C(C#N)OC(C)=O (stereo not given)
T/C (dose: 12.5 mg/kg/injection, schedule: Q04DX003 (ip), vehicle: Klucel (hydroxypropylcellulose) (HPC)): 100 % of control
T/C [5]: 95 % of control
T/C [6]: 97 % of control

COC(=O)C1C2CC(C3OC23)C1C(=O)OC (stereo not given)
T/C [7]: 94 % of control
T/C [8]: 100 % of control
T/C [10]: 96 % of control

CC1(C)N=C(N)N=C(N)N1c1ccc(CCCCc2ccc(S(=O)(=O)F)cc2Cl)c(Cl)c1
T/C (dose: 1.56 mg/kg/injection, schedule: Q01DX009 (ip), vehicle: saline with Tween-80): 120 % of control
T/C (dose: 3.13 mg/kg/injection, schedule: Q01DX009 (ip), vehicle: saline with Tween-80): 120 % of control
T/C (dose: 3.13 mg/kg/injection, schedule: Q01DX009 (ip), vehicle: saline): 117 % of control
T/C [11]: 176 % of control
T/C (dose: 9.4 mg/kg/injection, schedule: Q04DX003 (ip), vehicle: saline): 120 % of control
T/C [12]: 158 % of control and 189 % of control
T/C (dose: 18.75 mg/kg/injection, schedule: Q04DX003 (ip), vehicle: saline): 119 % of control
T/C [18]: 164 % of control and 200 % of control
T/C (dose: 25.0 mg/kg/injection, schedule: Q01DX009 (ip), vehicle: saline): 158 % of control
T/C [16]: 182 % of control and 189 % of control
T/C (dose: 50.0 mg/kg/injection, schedule: Q01DX009 (ip), vehicle: saline): 178 % of control
T/C (dose: 89.0 mg/kg/injection, schedule: Q04DX003 (ip), vehicle: saline with Tween-80): 157 % of control
T/C [13]: 197 % of control
T/C (dose: 133.0 mg/kg/injection, schedule: Q04DX003 (ip), vehicle: saline with Tween-80): 95 % of control
T/C (dose: 150.0 mg/kg/injection, schedule: Q04DX003 (ip), vehicle: saline): 160 % of control

CC(NC(=O)C(C)NC(=O)OC(C)(C)C)C(=O)O (stereo not given)
T/C [18]: 92 % of control
T/C [16]: 94 % of control
T/C [13]: 93 % of control
T/C [14]: 92 % of control

COc1ccc(C(C)=O)cc1N
T/C [7]: 100 % of control
T/C [8]: 97 % of control
T/C [10]: 95 % of control

COc1ccccc1NC(=O)Nc1ccc(F)cc1
T/C [7]: 95 % of control
T/C [8]: 95 % of control
T/C [10]: 89 % of control

CC(=O)[C@H]1CC[C@H]2[C@@H]3CCC4=CC(=O)CC[C@]4(C)[C@H]3CC[C@]12C
T/C (dose: 12.5 mg/kg/injection, schedule: Q02DX009 (ip), vehicle: Klucel (hydroxypropylcellulose) (HPC)): 104 % of control
T/C (dose: 25.0 mg/kg/injection, schedule: Q02DX009 (ip), vehicle: Klucel (hydroxypropylcellulose) (HPC)): 96 % of control
T/C (dose: 50.0 mg/kg/injection, schedule: Q02DX009 (ip), vehicle: Klucel (hydroxypropylcellulose) (HPC)): 100 % of control
T/C (dose: 100.0 mg/kg/injection, schedule: Q02DX009 (ip), vehicle: Klucel (hydroxypropylcellulose) (HPC)): 91 % of control
T/C (dose: 200.0 mg/kg/injection, schedule: Q02DX009 (ip), vehicle: Klucel (hydroxypropylcellulose) (HPC)): 120 % of control
T/C (dose: 400.0 mg/kg/injection, schedule: Q02DX009 (ip), vehicle: Klucel (hydroxypropylcellulose) (HPC)): 104 % of control

Nc1nc(SCc2ccccc2Cl)c2ncn(C3OC(CO)C(O)C3O)c2n1 (stereo not given)
T/C [1]: 89 % of control
T/C [16]: 88 % of control

CC(C)=C(C=O)CCC(C)C
T/C (dose: 25.0 mg/kg/injection, schedule: Q04DX003 (ip), vehicle: saline with Tween-80): 100 % of control
T/C (dose: 50.0 mg/kg/injection, schedule: Q04DX003 (ip), vehicle: saline with Tween-80): 95 % of control
T/C (dose: 100.0 mg/kg/injection, schedule: Q04DX003 (ip), vehicle: saline with Tween-80): 97 % of control and 100 % of control

CC12C=CC(CC1)C2OC(=O)c1ccccc1C(=O)O (stereo not given)
T/C [17]: 108 % of control
T/C [1]: 94 % of control
T/C [2]: 100 % of control
T/C [3]: 94 % of control

CC(=O)CC(=O)N1CCCC(C)C1 (stereo not given)
T/C [2]: 116 % of control
T/C [3]: 109 % of control
T/C [9]: 110 % of control

c1ccc2sc(SSN3CCOCC3)nc2c1
T/C [17]: 97 % of control
T/C [1]: 94 % of control

CCOC(=O)c1ccc(OC(=O)Nc2ccc(Cl)cc2)cc1
T/C [13]: 96 % of control
T/C [14]: 92 % of control

— PubChem BioAssay AID192 (DTP/NCI, 2004)
